Test results reported in patent US10933059B2, “Combination, application thereof and treatment method” (KANGPU BIOPHARMACEUTICALS, LTD., priority 2016, dated 2021).
Where two headings read alike, the source gives them in different places.

Tested on: Vcap cells
Assay: CTG cell proliferation assay on Vcap cells (compounds alone or in combination, 5 days)
Assay type: cell-based
Method: In vitro test of the inhibition effect of the compound in combination with androgen receptor pathway modulators on the prostate cancer cell proliferation.
Inhibition effect of the compounds such as B101, B102, B103, B104, B105, B106, C111 and the like, androgen receptor pathway modulators, hormone compounds, alone or in combination with each other on the prostate cancer cell proliferation were tested on Vcap cells (androgen receptor (+) prostate cancer cells) (ATCC, catalogue number CRL-2876). The specific experimental operation was as follows: 5×10^3 Vcap cells per well were inoculated into 96-well plates with transparent bottom and white wall (Corning, catalogue number CLS3903) containing the specific medium, and were cultured in a 37° C., 5% CO2 incubator for 24 hours. The tested compounds and the androgen receptor pathway modulators were prepared to a 150 mM stocking solution with DMSO (Sigma, catalogue number 276855), diluted with culture medium to the desired concentrations (the final concentration of DMSO is 0.2%), and then added to each well, 2 wells/concentration, followed by being incubated in a 37° C., 5% CO2 incubator for 5 days. The tested compounds were used alone or in combination with other androgen receptor pathway modulators and/or hormone compounds respectively. […] After that, 100 μl of CellTiter-Glo® cell viability assay reagent (Promega, catalogue number G7570) was added to each well and mixed well on a vibrator for 10 minutes to induce cell lysis. The 96-well plate was placed at room temperature for 10 minutes, so as to stabilize its luminescence signal. A white bottom membrane was pasted on the bottom of the plate and the plate was tested using EnSpire.

[1] = tested compound 0.1 μM in combination with 1 μM B105
[2] = tested compound 1 μM in combination with 1 μM B101
[3] = tested compound 1 μM in combination with 1 μM B105
[4] = tested compound 10 μM in combination with 1 μM B101
[5] = tested compound 10 μM in combination with 1 μM B105
[6] = Homo sapiens, VCaP, 120 h, read-out: Survival rate of Vcap cells, tested compound alone, 0.1 μM
[7] = Homo sapiens, VCaP, 120 h, tested compound alone, 1 μM, read-out: Survival rate of Vcap cells
[8] = Homo sapiens, VCaP, 120 h, tested compound alone, 10 μM, read-out: Survival rate of Vcap cells
[9] = tested compound 0.1 μM in combination with 1 μM B101
[10] = Homo sapiens, VCaP, 120 h, tested compound alone, 0.1 μM, read-out: Survival rate of Vcap cells
[11] = tested compound 0.1 μM in combination with 1 μM ARN-509
[12] = tested compound 0.1 μM in combination with 1 μM Enzalutamide
[13] = tested compound 1 μM in combination with 1 μM ARN-509
[14] = tested compound 1 μM in combination with 1 μM Enzalutamide
[15] = tested compound 10 μM in combination with 1 μM ARN-509
[16] = tested compound 10 μM in combination with 1 μM Enzalutamide
[17] = Homo sapiens, VCaP, 120 h, read-out: Survival rate of Vcap cells, tested compound alone, 10 μM

Structure (SMILES)	Survival rate of Vcap cells [1]	Survival rate of Vcap cells [2]	Survival rate of Vcap cells [3]	Survival rate of Vcap cells [4]	Survival rate of Vcap cells [5]	viability at 1 µM [7]	viability at 10 µM [8]	Survival rate of Vcap cells [9]	viability at 0.1 µM [10]	Survival rate of Vcap cells [11]	Survival rate of Vcap cells [12]	Survival rate of Vcap cells [13]	Survival rate of Vcap cells [14]	Survival rate of Vcap cells [15]	Survival rate of Vcap cells [16]	Survival rate of Vcap cells (tested compound alone, 1 μM)	also measured
C[C@]12CC[C@H](O)C[C@@H]1CC[C@@H]1[C@@H]2CC[C@]2(C)C(=O)CC[C@@H]12 [Epiandrosterone, reference compound]	71.5%	71.1%	64.6%	79.8%	77.4%	–	–	–	–	–	–	–	–	–	–	–	–
CC(O)(CS(=O)(=O)c1ccc(F)cc1)C(=O)Nc1ccc(C#N)c(C(F)(F)F)c1 (stereo not drawn) [bicalutamide, reference compound]	75.9%	66.5%	67.3%	64.0%	63.4%	94%	92%	70.5%	–	–	–	–	–	–	–	–	viability at 0.1 µM [6]: 99.2%
Nc1cc(F)cc2c1CN([C@@H]1CCC(=O)NC1=O)C2=O [B103]	–	–	–	–	–	84.1%	85.5%	–	86.3%	48.8%	50.2%	41.7%	42.7%	38.3%	42.9%	84.1%	–
CC(C)C(=O)Nc1ccc([N+](=O)[O-])c(C(F)(F)F)c1 [Flutamide, reference compound]	76.5%	65.1%	64.6%	42.8%	43.8%	96.7%	73.1%	80.4%	105%	–	–	–	–	–	–	–	–
[2H][C@@]1(N2Cc3c(N)cc(F)cc3C2=O)CCC(=O)NC1=O [B106]	–	–	–	–	–	79%	74.1%	–	86.8%	50.6%	50.6%	41.1%	40.5%	39.9%	38.2%	79.0%	–
CC(=O)S[C@@H]1CC2=CC(=O)CC[C@]2(C)[C@H]2CC[C@@]3(C)[C@@H](CC[C@@]34CCC(=O)O4)[C@H]12 [Spironolactone, reference compound]	87.2%	77.3%	79.6%	65.9%	64.5%	91.3%	72.5%	85.3%	100%	–	–	–	–	–	–	–	–
Nc1cc(F)cc2c1CN([C@H]1CCC(=O)NC1=O)C2=O [B102]	–	–	–	–	–	80.9%	78.4%	–	84.7%	47.2%	46.3%	40.2%	41.1%	38.3%	40.1%	80.9%	–
CC(O)c1cc(C(=O)N[C@@H](C)Cn2ccc(-c3ccc(C#N)c(Cl)c3)n2)[nH]n1 (stereo partly drawn) [ODM-201, reference compound]	–	–	–	–	–	69%	–	–	–	–	–	–	–	–	–	69.0%	viability at 0.1 µM [6]: 90.7%; viability at 10 µM [17]: 75.4%
[2H][C@]1(N2Cc3c(OCc4ccc(CN5CCOCC5)cc4F)cccc3C2=O)CCC(=O)NC1=O [C111]	–	–	–	–	–	81%	77%	–	81.5%	37.0%	36.3%	35.6%	35.8%	37.3%	36.6%	–	inhibition at 0.05 µM (Homo sapiens, VCaP, 120 h, B105 or C111 0.05 μM alone, 5 days, read-out: Vcap cell proliferation inhibition rate): 19.6%; inhibition at 0.14 µM (Homo sapiens, VCaP, 120 h, B105 or C111 0.14 μM alone, 5 days, read-out: Vcap cell proliferation inhibition rate): 20.9%; inhibition at 1.23 µM (Homo sapiens, VCaP, 120 h, B105 or C111 1.23 μM alone, 5 days, read-out: Vcap cell proliferation inhibition rate): 23.4%; inhibition at 3.7 µM (Homo sapiens, VCaP, 120 h, B105 or C111 3.70 μM alone, 5 days, read-out: Vcap cell proliferation inhibition rate): 25.4%; inhibition at 11.11 µM (Homo sapiens, VCaP, 120 h, B105 or C111 11.11 μM alone, 5 days, read-out: Vcap cell proliferation inhibition rate): 28.8%; inhibition at 33.33 µM (Homo sapiens, VCaP, 120 h, B105 or C111 33.33 μM alone, 5 days, read-out: Vcap cell proliferation inhibition rate): 29.1%; inhibition at 100 µM (Homo sapiens, VCaP, 120 h, B105 or C111 100.00 μM alone, 5 days, read-out: Vcap cell proliferation inhibition rate): 31.6%; inhibition at 300 µM (Homo sapiens, VCaP, 120 h, B105 or C111 300.00 μM alone, 5 days, read-out: Vcap cell proliferation inhibition rate): 33.9%; Survival rate of Vcap cells (tested compound 0.1 μM in combination with 1 μM Abiraterone acetate): 65.5%; Survival rate of Vcap cells (tested compound 0.1 μM in combination with 1 μM Galeterone): 46.6%; Survival rate of Vcap cells (tested compound 0.1 μM in combination with 1 μM ODM-201): 45.9%; Survival rate of Vcap cells (tested compound 1 μM in combination with 1 μM Abiraterone acetate): 68.5%; Survival rate of Vcap cells (tested compound 1 μM in combination with 1 μM Galeterone): 47.0%; Survival rate of Vcap cells (tested compound 1 μM in combination with 1 μM ODM-201): 43.1%; Survival rate of Vcap cells (tested compound 10 μM in combination with 1 μM Abiraterone acetate): 66.1%; Survival rate of Vcap cells (tested compound 10 μM in combination with 1 μM Galeterone): 47.8%; Survival rate of Vcap cells (tested compound 10 μM in combination with 1 μM ODM-201): 37.2%
CC(=O)O[C@]1(C(C)=O)CC[C@H]2[C@@H]3C=C(C)C4=CC(=O)CC[C@]4(C)[C@H]3CC[C@@]21C [Megestrol Acetate, reference compound]	82.1%	83.1%	83.3%	75.2%	76.6%	103%	88.9%	85.2%	99.7%	–	–	–	–	–	–	–	–
CC(=O)O[C@]1(C(C)=O)CC[C@H]2[C@@H]3C=C(Cl)C4=CC(=O)[C@@H]5C[C@@H]5[C@]4(C)[C@H]3CC[C@@]21C [Cyproterone Acetate, reference compound]	82.1%	85.0%	84.0%	78.9%	79.4%	96%	83.5%	85.0%	97.2%	–	–	–	–	–	–	–	–
C[C@](O)(COc1ccc(C#N)cc1)C(=O)Nc1ccc(C#N)c(C(F)(F)F)c1 [MK-2866, reference compound]	62.6%	63.6%	59.7%	52.7%	52.5%	–	–	61.4%	–	–	–	–	–	–	–	–	viability at 0.1 µM [6]: 76.5%; viability at 1 µM (Homo sapiens, VCaP, 120 h, read-out: Survival rate of Vcap cells, tested compound alone, 1 μM): 77.4%; viability at 10 µM [17]: 69.4%
C[C@]12C=CC(=O)C=C1CC[C@@H]1[C@@H]2C(=O)C[C@@]2(C)[C@H]1CC[C@]2(O)C(=O)CO [Prednisone, reference compound]	87.5%	76.9%	80.6%	75.3%	79.7%	99.7%	99.4%	84.0%	99.1%	–	–	–	–	–	–	–	–
[2H]C1(N2Cc3c(N)cc(F)cc3C2=O)CCC(=O)NC1=O (stereo not drawn) [B104]	–	–	–	–	–	77.4%	74%	–	84.4%	45.7%	47.1%	40.5%	41.2%	37.8%	38.8%	77.4%	–
CC(=O)Nc1ccc(OC[C@](C)(O)C(=O)Nc2ccc([N+](=O)[O-])c(C(F)(F)F)c2)cc1 [Andarine, reference compound]	71.1%	65.5%	64.6%	53.8%	53.5%	–	–	69.8%	–	–	–	–	–	–	–	82.7%	Survival rate of Vcap cells (tested compound alone, 0.1 μM): 85.6%; Survival rate of Vcap cells (tested compound alone, 10 μM): 69.4%
